Reference: patent publication US6117875A, “Pyrido (2,3-B) pyrazine derivatives” (Fujisawa Pharmaceutical Co., Ltd., priority 1995, dated 2000)

Tests used:
[1] = molecular target: U937 phosphodiesterase IV (PDE IV); assay: Inhibition of U937 phosphodiesterase IV (PDE IV); type: biochemical; conditions: PDE IV preparation from U937 cells, [3H]-cAMP, 10 μM CI-930 (PDE III inhibitor) present, 30°C, pH 8.0
Procedure: Harvested U937 was freezed in -80pbC. and throwed to destroy the cell body. The pellet of destroyed cell was washed by Phosphate-buffered saline (PBS).
The washed cell pellet was homogenized with Dounce homogenizer (20 strokes) in homogenizing buffer (0.5% deoxycholate [DOC], 5 mM 2-mercaptoethanol, 1 μM leupeptin, 100 μM PMSF, 20 μM p-tosyl-L-lysine-chloromethyl ketone [TLCK] in PBS). The homogenate was centrifuged at 100,000 g×90 minutes (4pbC.) and the supernatant containing PDE IV activity was dialyzed against dialysis buffer, which was the same component as homogenizing buffer without DOC. The dialyzed supernatant of homogenate was stored in freezer (-80pbC.) as PDE IV enzyme preparation.
Enzyme preparation was diluted in assay buffer (10 mM Tris-HCl, 5 mM MgCl, 1 mM 2-Mercaptoethanol [pH 8.0]). In advance the rate of dilution was choosen every new lot of homogenizing preparation. For blank, a part of the enzyme preparation was boiled for 10 minutes. […]
The reaction tube was preincubated in a water bath (30pbC.) for 5 minutes, then 100 μl [^3 H]-cAMP (37.0 MBq/ml [^3 H]-cAMP: 4 μM cold cAMP=1:800) was added thereto. […] The mixture was centrifuged at 1000 rpm×5 minutes, and then 500 μl of the supernatant was added to 10 ml scintillation fluid in appropriate vial, vortexed, and counted for [^3 H].
The inhibitory activity was calculated according to the following equation: [formula]

[2] = system: TNF-α production in human mononuclear cells; assay: Inhibition on TNF-α production in human mononuclear cells; type: cell-based; conditions: TNF-α by ELISA, human MNC, 1 μg/ml LPS (E. coli), 37°C, 16 hours
Procedure: Blood was drawn from healthy volunteers with heparin. The mononuclear cell (MNC) fraction was obtained by gradient centrifugation (1800 rpm, 15 minutes), diluted with the same volume of RPMI-1640 culture medium, over Ficoll-Paque (Pharmacia LKB Biotechnology). MNC were washed twice with RPMI-1640. Then, MNC were resuspended in RPMI-1640 culture medium supplemented with 2 mM L-glutamine and 1% fetal bovine serum. MNC were incubated at 37pbC. for 16 hours in 96-well micro culture plate at a concentration of 3×10^5 cells/well with or without 1 μg/ml lipopolysaccharide (LPS) (from E. coli) and various amounts of test compound. At the end of incubation, the supernatant was obtained and its TNF-α active was measured by enzyme-linked immunosorbent assay (ELISA). ELISA was performed with TNF-α ELISA kit (Otsuka Pharmaceutical Co., Ltd.).

- IC50 [1]: 16 nM
- IC50 [2]: 24 nM
Structure (SMILES): CC(=O)Nc1ccc(/C=C/C(=O)Nc2cccc(-c3cccc(-n4c(=O)c(Cc5cccnc5)nc5cccnc54)c3)c2)cn1 [Test compound (a), 4-[3-[3-[(E)-3-(6-acetamido-3-pyridyl)acryloylamino]phenyl]phenyl]-2-(3-pyridylmethyl)-3-oxo-3,4-dihydropyrido[2,3-b]pyrazine]
